# Laboratory results from the supplement of paper PMC11208160.
# Assay: recombinant UMI read abundance after kanamycin selection (control-corrected) (log10(CPM+1)); higher = more efficient recombination; extreme values may be limits of the assay; sequences stand for … in AGTGCAGAGAAAATCGGCCAGTTTTCTCTGCCTGCAGTCCGCATGCCGTGGGACCCCTTGGGTTCTAACCTGTTGCCTAGATTTATGCAGCGGACTGCCTTTCTCCCAAAGTGATAAACCGG…AGGTTGGTTTCACT; site = the 11-nt donor
# Method in brief: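 Pooled Escherichia coli screen of donor and donor-binding-loop pairs for the IS621 bridge recombinase. Each pair sits with a 12-nt UMI on a plasmid carrying a promoterless kanamycin gene. The library was co-electroporated with a target plasmid encoding a fixed target and T7-inducible recombinase, then plated with IPTG (0.07 mM) plus kanamycin, or unselected, each in two replicates. Recombinant UMIs were PCR-amplified across the donor–target junction and sequenced. Counts became CPM, averaged over replicates, scaled by control-derived factors and reported as log10(CPM+1).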
# 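Further: IS621 bridge recombinase in Escherichia coli cells against a fixed T5 target plasmid.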
sequence,measurement,value
CCGTTTACATGGACCGGTTTTCCCGGTAATCCGTATTTGCG (site CCGTTTACTTG),recombinant UMI read abundance (log10),0
CCGTTTGCATGGACCGGTTTTCCCGGTAATCCGTATTTGTG (site CCGTTAGCTCA),recombinant UMI read abundance (log10),0.00545
CCGTTTGCATGGACCGGTTTTCCCGGTAATCCGTATTTGTG (site CCGTTCGCTCA),recombinant UMI read abundance (log10),0.0182
CCGTTTGCATGGACCGGTTTTCCCGGTAATCCGTATTTGTG (site CCGTTGGCTCA),recombinant UMI read abundance (log10),0.0153
CCGTTTGCATGGACCGGTTTTCCCGGTAATCCGTATTTGTG (site CCGTTTGCTCA),recombinant UMI read abundance (log10),0
CCTAAAGCATGGACCGGTTTTCCCGGTAATCCGTATTTGAG (site CCTAAAGCTAT),recombinant UMI read abundance (log10),0
CCTAAAGCATGGACCGGTTTTCCCGGTAATCCGTATTTGAG (site CCTAAAGCTCT),recombinant UMI read abundance (log10),0.599
CCTAAAGCATGGACCGGTTTTCCCGGTAATCCGTATTTGAG (site CCTAAAGCTGT),recombinant UMI read abundance (log10),0
CCTAAAGCATGGACCGGTTTTCCCGGTAATCCGTATTTGAG (site CCTAAAGCTTT),recombinant UMI read abundance (log10),0
CCTAAAGCATGGACCGGTTTTCCCGGTAATCCGTATTTGCT (site CCTAAAGCTAA),recombinant UMI read abundance (log10),0.00467
CCTAAAGCATGGACCGGTTTTCCCGGTAATCCGTATTTGCT (site CCTAAAGCTAC),recombinant UMI read abundance (log10),0
CCTAAAGCATGGACCGGTTTTCCCGGTAATCCGTATTTGCT (site CCTAAAGCTAG),recombinant UMI read abundance (log10),0
CCTAAAGCATGGACCGGTTTTCCCGGTAATCCGTATTTGCT (site CCTAAAGCTAT),recombinant UMI read abundance (log10),0
CCTAAATCATGGACCGGTTTTCCCGGTAATCCGTATTTGCA (site CCTAAATCTTG),recombinant UMI read abundance (log10),0
CCTAAGTCATGGACCGGTTTTCCCGGTAATCCGTATTTGCA (site CCTAAGTCTTG),recombinant UMI read abundance (log10),0
CCTAATACATGGACCGGTTTTCCCGGTAATCCGTATTTGGT (site CCTAATACTAC),recombinant UMI read abundance (log10),0
CCTAATACATGGACCGGTTTTCCCGGTAATCCGTATTTGGT (site CCTAATACTCC),recombinant UMI read abundance (log10),0.0104
CCTAATACATGGACCGGTTTTCCCGGTAATCCGTATTTGGT (site CCTAATACTGC),recombinant UMI read abundance (log10),0
CCTAATACATGGACCGGTTTTCCCGGTAATCCGTATTTGGT (site CCTAATACTTC),recombinant UMI read abundance (log10),0
CCTAATACATGGACCGGTTTTCCCGGTAATCCGTATTTGTC (site CCTAATACTGA),recombinant UMI read abundance (log10),0
CCTAATACATGGACCGGTTTTCCCGGTAATCCGTATTTGTC (site CCTAATACTGC),recombinant UMI read abundance (log10),0
CCTAATACATGGACCGGTTTTCCCGGTAATCCGTATTTGTC (site CCTAATACTGG),recombinant UMI read abundance (log10),0
CCTAATACATGGACCGGTTTTCCCGGTAATCCGTATTTGTC (site CCTAATACTGT),recombinant UMI read abundance (log10),0
CCTAATGCATGGACCGGTTTTCCCGGTAATCCGTATTTGGC (site CCTAATACTGC),recombinant UMI read abundance (log10),0
CCTAATGCATGGACCGGTTTTCCCGGTAATCCGTATTTGGC (site CCTAATCCTGC),recombinant UMI read abundance (log10),0
CCTAATGCATGGACCGGTTTTCCCGGTAATCCGTATTTGGC (site CCTAATGCTGC),recombinant UMI read abundance (log10),0
CCTAATGCATGGACCGGTTTTCCCGGTAATCCGTATTTGGC (site CCTAATTCTGC),recombinant UMI read abundance (log10),0
CCTACGGCATGGACCGGTTTTCCCGGTAATCCGTATTTGCG (site CCTACGGCTCG),recombinant UMI read abundance (log10),0.00682
CCTATGGCATGGACCGGTTTTCCCGGTAATCCGTATTTGGT (site CCTATGGCTAC),recombinant UMI read abundance (log10),0.012
CCTATTTCATGGACCGGTTTTCCCGGTAATCCGTATTTGAA (site CCTATTTCTTT),recombinant UMI read abundance (log10),0
CCTCAGCCATGGACCGGTTTTCCCGGTAATCCGTATTTGGC (site CCTCAGCCTGC),recombinant UMI read abundance (log10),0
CCTCCTTCATGGACCGGTTTTCCCGGTAATCCGTATTTGCT (site CCTCCTTCTAG),recombinant UMI read abundance (log10),0
CCTCGTACATGGACCGGTTTTCCCGGTAATCCGTATTTGGT (site CCTCGTACTAC),recombinant UMI read abundance (log10),0.0115
CCTGAACCATGGACCGGTTTTCCCGGTAATCCGTATTTGGT (site CCTGAACCTAC),recombinant UMI read abundance (log10),0.00702
CCTGATACATGGACCGGTTTTCCCGGTAATCCGTATTTGTA (site CCTGATACTTA),recombinant UMI read abundance (log10),0.326
CCTGCCCCATGGACCGGTTTTCCCGGTAATCCGTATTTGGC (site CCTGCCCCTGC),recombinant UMI read abundance (log10),0
CCTGGCTCATGGACCGGTTTTCCCGGTAATCCGTATTTGCA (site CCTGGCTCTTG),recombinant UMI read abundance (log10),0
CCTGTAACATGGACCGGTTTTCCCGGTAATCCGTATTTGCA (site CCTGTAACTTG),recombinant UMI read abundance (log10),0
CCTGTACCATGGACCGGTTTTCCCGGTAATCCGTATTTGCG (site CCTGTACCTCG),recombinant UMI read abundance (log10),0.0076
CCTTAGCCATGGACCGGTTTTCCCGGTAATCCGTATTTGAA (site CCTTAGCCTTT),recombinant UMI read abundance (log10),0
CCTTATACATGGACCGGTTTTCCCGGTAATCCGTATTTGAG (site CCTTATACTCT),recombinant UMI read abundance (log10),0.0212
CCTTCTCCATGGACCGGTTTTCCCGGTAATCCGTATTTGTG (site CCTTCTCCTCA),recombinant UMI read abundance (log10),0.0156
CCTTCTTCATGGACCGGTTTTCCCGGTAATCCGTATTTGGG (site CCTTCTTCTCC),recombinant UMI read abundance (log10),0.00401
CCTTCTTCATGGACCGGTTTTCCCGGTAATCCGTATTTGTC (site CCTTCTTCTGA),recombinant UMI read abundance (log10),0
CCTTTAGCATGGACCGGTTTTCCCGGTAATCCGTATTTGTG (site CCATTAGCTCA),recombinant UMI read abundance (log10),0.00718
CCTTTAGCATGGACCGGTTTTCCCGGTAATCCGTATTTGTG (site CCCTTAGCTCA),recombinant UMI read abundance (log10),0.00968
CCTTTAGCATGGACCGGTTTTCCCGGTAATCCGTATTTGTG (site CCGTTAGCTCA),recombinant UMI read abundance (log10),0.00885
CCTTTAGCATGGACCGGTTTTCCCGGTAATCCGTATTTGTG (site CCTTTAGCTCA),recombinant UMI read abundance (log10),0.0063
CCTTTGCCATGGACCGGTTTTCCCGGTAATCCGTATTTGGC (site CCTTTGCCTGC),recombinant UMI read abundance (log10),0
CCTTTGTCATGGACCGGTTTTCCCGGTAATCCGTATTTGGA (site CCTTTGTCTTC),recombinant UMI read abundance (log10),0.00278
CGAAAAGCATGGACCGGTTTTCCCGGTAATCCGTATTTGCA (site CGAAAAGCTTG),recombinant UMI read abundance (log10),0
CGAAAGACATGGACCGGTTTTCCCGGTAATCCGTATTTGGG (site CGAAAGACTCC),recombinant UMI read abundance (log10),0.621
CGAAAGACATGGACCGGTTTTCCCGGTAATCCGTATTTGGT (site CGAAAGACTAC),recombinant UMI read abundance (log10),2
CGAAAGGCATGGACCGGTTTTCCCGGTAATCCGTATTTGCT (site AGAAAGGCTAG),recombinant UMI read abundance (log10),0
CGAAAGGCATGGACCGGTTTTCCCGGTAATCCGTATTTGCT (site CGAAAGGCTAG),recombinant UMI read abundance (log10),2.39
CGAAAGGCATGGACCGGTTTTCCCGGTAATCCGTATTTGCT (site GGAAAGGCTAG),recombinant UMI read abundance (log10),0
CGAAAGGCATGGACCGGTTTTCCCGGTAATCCGTATTTGCT (site TGAAAGGCTAG),recombinant UMI read abundance (log10),0
CGAACCACATGGACCGGTTTTCCCGGTAATCCGTATTTGTG (site CGAACCACTCA),recombinant UMI read abundance (log10),0.523
CGAACGACATGGACCGGTTTTCCCGGTAATCCGTATTTGTT (site CGAACGACTAA),recombinant UMI read abundance (log10),1.08
CGAACGACATGGACCGGTTTTCCCGGTAATCCGTATTTGTT (site CGACCGACTAA),recombinant UMI read abundance (log10),0.00483
CGAACGACATGGACCGGTTTTCCCGGTAATCCGTATTTGTT (site CGAGCGACTAA),recombinant UMI read abundance (log10),0.0306
CGAACGACATGGACCGGTTTTCCCGGTAATCCGTATTTGTT (site CGATCGACTAA),recombinant UMI read abundance (log10),0.00769
CGAACTCCATGGACCGGTTTTCCCGGTAATCCGTATTTGGG (site CGAACTCCTCC),recombinant UMI read abundance (log10),0.143
CGAAGACCATGGACCGGTTTTCCCGGTAATCCGTATTTGGG (site CGAAGACCTCC),recombinant UMI read abundance (log10),0
CGAAGACCATGGACCGGTTTTCCCGGTAATCCGTATTTGGG (site CGACGACCTCC),recombinant UMI read abundance (log10),0.0149
CGAAGACCATGGACCGGTTTTCCCGGTAATCCGTATTTGGG (site CGAGGACCTCC),recombinant UMI read abundance (log10),0.0232
CGAAGACCATGGACCGGTTTTCCCGGTAATCCGTATTTGGG (site CGATGACCTCC),recombinant UMI read abundance (log10),0.006
CGAAGTCCATGGACCGGTTTTCCCGGTAATCCGTATTTGCG (site CGAAGTCCTCG),recombinant UMI read abundance (log10),1.21
CGAATAACATGGACCGGTTTTCCCGGTAATCCGTATTTGCC (site CGAATAACTGG),recombinant UMI read abundance (log10),0.484
CGACAATCATGGACCGGTTTTCCCGGTAATCCGTATTTGAC (site CGACAATCTGT),recombinant UMI read abundance (log10),2.86
CGACCAACATGGACCGGTTTTCCCGGTAATCCGTATTTGAT (site GAGGGGCCTTC),recombinant UMI read abundance (log10),0.006
CGACCATCATGGACCGGTTTTCCCGGTAATCCGTATTTGGT (site CGACCATCTAC),recombinant UMI read abundance (log10),0.825
CGACCATCATGGACCGGTTTTCCCGGTAATCCGTATTTGGT (site CGATCATCTAG),recombinant UMI read abundance (log10),0
CGACCCTCATGGACCGGTTTTCCCGGTAATCCGTATTTGCT (site CGACCCTCTAG),recombinant UMI read abundance (log10),3.63
CGACCCTCATGGACCGGTTTTCCCGGTAATCCGTATTTGCT (site CGATCATCTAG),recombinant UMI read abundance (log10),0
